According to patent publication US20240010729A1, “COMBINATION THERAPY OF A PD-1 ANTAGONIST AND LAG3 ANTAGONIST AND LENVATINIB OR A PHARMACEUTICALLY ACCEPTABLE SALT THEREOF FOR TREATING PATIENTS WITH CANCER” (MERCK SHARP & DOHME LLC, priority 2020, published 2024):

Columns and labels:
CT26 colorectal model = test: CT26 mouse syngeneic tumor model (tumor growth inhibition, survival); details: CT26, Day 17; lenvatinib 10 mg/kg oral QD, antibodies 10 mg/kg i.p. every 5 days
Source text: Prior to treatment initiation, female BALB/c mice (for CT26 study) or C57BL/6J mice (for KPC-2838c3 study) aged 8 weeks weighing between 18 to 21 grams were anesthetized and subcutaneously injected into the rear flank with 0.3×10^6 CT26 or 0.5×10^6 KPC-2838c3 log-phase sub-confluent cells. When the mean tumor volume of inoculated animals reached approximately 100 mm^3 (II days later for CT26, 15 days later for KPC-2838c3) mice were pair-matched into 8 treatment groups consisting of 10 mice per group. Treatment groups consisted of: 1) 0.5% methylcellulose (Vehicle)+Isotype mouse IgG1 antibody (migG1); 2) Vehicle+anti-PD-1 mIgG1 antibody (muDX400); 3) Vehicle+anti-LAG3 mIgG1 antibody (28G10); 4) Lenvatinib+isotype; 5) Vehicle+anti-PD-1+anti-LAG3; 6) Lenvatinib+anti-PD-1; 7) Lenvatinib+anti-LAG3; 8) Lenvatinib+anti-PD-1+anti-LAG3. Vehicle and lenvatinib were orally gavage-dosed once daily (QD) at 10 mg/kg body weight. Isotype control, a mouse monoclonal antibody specific for adenoviral hexon of the isotype IgG1, as well as anti-PD-1 and anti-LAG3 antibodies were dosed intraperitoneally every 5 days at 10 mg/kg body weight. Start of treatments was considered Day 0 and dosing based on schedules continued as described until Day 35. Caliper measurements of tumors and body weights were captured twice weekly. […]

[1] = system: mCRC that is non MSI-H/pMMR; details: third line mCRC patients; cited from earlier work

Row | Structure (SMILES) | TGI (tumor growth inhibition) respective to Vehicle-treated animals (CT26 colorectal model) [%] | 6-month PFS rate [1] [%]
1 | COc1cc2nccc(Oc3ccc(NC(=O)NC4CC4)c(Cl)c3)c2cc1C(N)=O [Lenvatinib, 4-[3-chloro-4-(cyclopropylaminocarbonyl)aminophenoxy]-7-methoxy-6-quinolinecarboxamide] | 54 | –
2 | CNC(=O)c1cc(Oc2ccc(NC(=O)Nc3ccc(Cl)c(C(F)(F)F)c3)c(F)c2)ccn1 [regorafenib] | – | ~15
